# Reference: publication PMC12649549, “Sequence Permutation Generated Lysine and Tryptophan-Rich Antimicrobial Peptides with Enhanced Therapeutic Index” (Antibiotics, 2025)
# Where two headings read alike, the source gives them in different places.
# Legend:
# [1] = system: S. aureus ATCC 25923
# Description: (§1) The antibacterial and salt-resistant activity of the peptides was tested using Escherichia coli (ATCC 25922), Pseudomonas aeruginosa Migula (ATCC 27853), Acinetobacter sp. (BCRC number 14B0091, BCRC number 14B0097, and BCRC number 14B0100), and Staphylococcus aureus sp. strains (ATCC 25923, ATCC 33591, ATCC 33592, ATCC 33593, and ATCC 6538). All bacteria were obtained from the Food Industry Research and Development Institute (Hsinchu, Taiwan) and cultured in sterilized Müller-Hinton (MH) broth at 37 °C and 200 rpm for 8 h. The inoculum concentrations were determined by measuring the optical density at 600 nm (OD 600 = 1, approximately 10^8 CFU/mL) using an Ultrospec 2100 pro UV-Visible spectrophotometer (Biochrom Ltd., Cambridge, UK) after 8 h of culture.
# (§2) The antibacterial activities of the peptides in Müller-Hinton (MH) broth and modified LYM broth were determined using the standard broth microdilution method as per Clinical and Laboratory Standards Institute (CLSI) guidelines. The LYM broth was prepared with specific components and adjusted to different conditions, including varying concentrations of NaCl and MgCl2, and different pH levels. To prepare the LYM broth, 5.4 mM KCl, 5.6 mM Na2HPO4, 0.5 mM MgSO4, and 1.0 mM sodium citrate were added. Additionally, 0.4 mg of ZnCl2, 2.0 mg of FeCl3·6H2O, 0.1 mg of CuSO4·5H2O, 0.1 mg of MnSO4·H2O, 0.1 mg of Na2B4O7∙10H2O, 700 mg of amino acid mixtures without tryptophan (Takara Bio Inc., San Jose, CA, USA), and 20 mg of L-tryptophan were added per liter of medium. The pH was adjusted to 7.4, and a vitamin mixture (100X, Sigma) and glucose concentration of 2% were added. For different conditions of LYM broth, NaCl concentrations of 300, 200, 150, and 50 mM, MgCl2 concentrations of 2.5, 1.5, and 0.5 mM, and pH levels of 6.5, 5.5, and 4.5 were adjusted. Bacterial strains were incubated in MH broth overnight, regrown, and diluted to a final concentration of 5 × 10^5 CFU/mL. Peptides were added to each well at final concentrations of 50, 25, 12.5, 6.25, 3.13, 1.56, and 0.78 µg/mL, and 99 µL of diluted microbes was loaded into each well of a polypropylene 96-well plate. […] The Morpheus HeatMap software (https://software.broadinstitute.org/morpheus/) was used to display MIC values on a color scale. All experiments were independently repeated three times.
# [2] = system: Escherichia coli (ATCC 25922)
# Description: as §1, §2
# [3] = system: S. aureus ATCC 6538
# Description: as §1, §2
# [4] = system: S. aureus ATCC 33591
# Description: as §1, §2
# [5] = system: A. baumannii 14B0091 (Acinetobacter sp., BCRC number 14B0091)
# Description: as §1, §2
# [6] = system: A. baumannii 14B00100 (Acinetobacter sp., BCRC number 14B0100)
# Description: as §1, §2
# [7] = system: Gram-negative bacteria; test: Geometric mean MIC and therapeutic index, Gram-negative bacteria; type: cell-based; conditions: Gram-negative bacteria
# Description: In this study, we aimed to investigate the potential of W5K series peptides for therapeutic use. To evaluate their efficacy for antibacterial therapy, we used the Therapeutic Index (TI) as a measure of their cell selectivity. The TI was calculated as the ratio of the concentration causing 10% hemolysis of human red blood cells (HC10) to the geometric mean minimum inhibitory concentration (GM) of the peptides against both Gram-negative and Gram-positive bacteria. This parameter was used to quantitatively assess the balance between antibacterial potency and cytotoxicity among the W5K derivatives.
# as §2
# [8] = LYM broth, 0 mM NaCl, 16 h, 37 °C
# [9] = LYM broth, 50 mM NaCl, 16 h, 37 °C
# [10] = LYM broth, 100 mM NaCl, 16 h, 37 °C
# [11] = LYM broth, 200 mM (NaCl), 16 h, 37 °C
# [12] = LYM broth, 300 mM (NaCl), 16 h, 37 °C
# [13] = MH broth, 5 × 10^5 CFU/mL, 16 h, 37 °C, repeated three times
substance,measurement,setting,value
Ac-KKKWRKWLKWLAK-NH2 [Peptide W5K12],MIC,[1]; [8],1.56 µg/mL
same,MIC,"[1]; LYM broth, 0.5 mM MgCl2",1.56 µg/mL
same,MIC,"[1]; LYM broth, 1.5 mM MgCl2",3.13 µg/mL
same,MIC,"[1]; LYM broth, 2.5 mM MgCl2",3.13 µg/mL
same,MIC,[1]; [9],3.13 µg/mL
same,MIC,[1]; [10],3.13 µg/mL
same,MIC,[1]; [11],6.25 µg/mL
same,MIC,[1]; [12],12.5 µg/mL
same,MIC,"[1]; LYM broth, pH 4.5",3.13 µg/mL
same,MIC,"[1]; LYM broth, pH 5.5",3.13 µg/mL
same,MIC,"[1]; LYM broth, pH 6.5",1.56 µg/mL
same,MIC,[1]; [13],3.13 µg/mL
same,MIC,[2]; [8],1.56 µg/mL
same,MIC,"[2]; LYM broth, 0.5 mM MgCl2",3.13 µg/mL
same,MIC,"[2]; LYM broth, 1.5 mM MgCl2",3.13 µg/mL
same,MIC,"[2]; LYM broth, 2.5 mM MgCl2",3.13 µg/mL
same,MIC,[2]; [9],3.13 µg/mL
same,MIC,[2]; [10],3.13 µg/mL
same,MIC,[2]; [11],6.25 µg/mL
same,MIC,[2]; [12],12.5 µg/mL
same,MIC,"[2]; LYM broth, pH 4.5",1.56 µg/mL
same,MIC,"[2]; LYM broth, pH 5.5",1.56 µg/mL
same,MIC,"[2]; LYM broth, pH 6.5",1.56 µg/mL
same,MIC,[2]; [13],3.13 µg/mL
same,MIC,[3]; [8],1.56 µg/mL
same,MIC,"[3]; LYM broth, 0.5 mM MgCl2",1.56 µg/mL
same,MIC,"[3]; LYM broth, 1.5 mM MgCl2",1.56 µg/mL
same,MIC,"[3]; LYM broth, 2.5 mM MgCl2",1.56 µg/mL
same,MIC,[3]; [9],1.56 µg/mL
same,MIC,[3]; [10],3.13 µg/mL
same,MIC,[3]; [11],6.25 µg/mL
same,MIC,[3]; [12],12.5 µg/mL
same,MIC,"[3]; LYM broth, pH 4.5",3.13 µg/mL
same,MIC,"[3]; LYM broth, pH 5.5",1.56 µg/mL
same,MIC,"[3]; LYM broth, pH 6.5",1.56 µg/mL
same,MIC,[3]; [13],3.13 µg/mL
same,MIC,[4]; [8],3.13 µg/mL
same,MIC,"[4]; LYM broth, 0.5 mM MgCl2",3.13 µg/mL
same,MIC,"[4]; LYM broth, 1.5 mM MgCl2",3.13 µg/mL
same,MIC,"[4]; LYM broth, 2.5 mM MgCl2",3.13 µg/mL
same,MIC,[4]; [9],3.13 µg/mL
same,MIC,[4]; [10],3.13 µg/mL
same,MIC,[4]; [11],6.25 µg/mL
same,MIC,[4]; [12],12.5 µg/mL
same,MIC,"[4]; LYM broth, pH 4.5",3.13 µg/mL
same,MIC,"[4]; LYM broth, pH 5.5",3.13 µg/mL
same,MIC,"[4]; LYM broth, pH 6.5",3.13 µg/mL
same,MIC,[4]; [13],6.25 µg/mL
same,MIC,[5]; [8],1.56 µg/mL
same,MIC,"[5]; LYM broth, 0.5 mM MgCl2",1.56 µg/mL
same,MIC,"[5]; LYM broth, 1.5 mM MgCl2",1.56 µg/mL
same,MIC,"[5]; LYM broth, 2.5 mM MgCl2",1.56 µg/mL
same,MIC,[5]; [9],1.56 µg/mL
same,MIC,[5]; [10],1.56 µg/mL
same,MIC,[5]; [11],1.56 µg/mL
same,MIC,[5]; [12],3.13 µg/mL
same,MIC,"[5]; LYM broth, pH 4.5",3.13 µg/mL
same,MIC,"[5]; LYM broth, pH 5.5",3.13 µg/mL
same,MIC,"[5]; LYM broth, pH 6.5",1.56 µg/mL
same,MIC,[5]; [13],1.56 µg/mL
same,MIC,[6]; [8],1.56 µg/mL
same,MIC,"[6]; LYM broth, 0.5 mM MgCl2",1.56 µg/mL
same,MIC,"[6]; LYM broth, 1.5 mM MgCl2",1.56 µg/mL
same,MIC,"[6]; LYM broth, 2.5 mM MgCl2",3.13 µg/mL
same,MIC,[6]; [9],1.56 µg/mL
same,MIC,[6]; [10],1.56 µg/mL
same,MIC,[6]; [11],1.56 µg/mL
same,MIC,[6]; [12],1.56 µg/mL
same,MIC,"[6]; LYM broth, pH 4.5",3.13 µg/mL
same,MIC,"[6]; LYM broth, pH 5.5",3.13 µg/mL
same,MIC,"[6]; LYM broth, pH 6.5",1.56 µg/mL
same,MIC,[6]; [13],3.13 µg/mL
same,GM G− (geometric mean of the MIC values),"[7]; MH broth, MIC >50 µg/mL counted as 100 µg/mL",2.4 µg/mL
same,Therapeutic Index (TI) G−,[7]; HC10/GM,17.6
